Assays:
Test in all cases: cells
Format in all cases: functional, cell-based, Homo sapiens
D-336MG = settings: Homo sapiens, D-336MG
Description: SANGER: Inhibition of human D-336MG cell growth in a cell viability assay.

CA46 = settings: Homo sapiens, CA46;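 note: growth inhibition of human CA46 cells, read out by a cell viability assay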
Description: SANGER: Inhibition of human CA46 cell growth in a cell viability assay.

RL = settings: Homo sapiens, RL
Description: SANGER: Inhibition of human RL cell growth in a cell viability assay.

D-542MG = settings: Homo sapiens, D-542MG
Description: SANGER: Inhibition of human D-542MG cell growth in a cell viability assay.

NCI-H322M = settings: Homo sapiens, NCI-H322M;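 note: cell viability assay measuring inhibition of growth of human NCI-H322M cells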
Description: SANGER: Inhibition of human NCI-H322M cell growth in a cell viability assay.

JIYOYE = settings: Homo sapiens, JIYOYE
Description: SANGER: Inhibition of human JiyoyeP-2003 cell growth in a cell viability assay.

NCI-H716 = settings: Homo sapiens, NCI-H716;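 note: growth inhibition of human NCI-H716 cells, measured by a cell viability assay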
Description: SANGER: Inhibition of human NCI-H716 cell growth in a cell viability assay.

KMS-12-PE = settings: Homo sapiens, KMS-12-PE;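 note: growth inhibition of human KMS-12-PE cells, measured with a cell viability assay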
Description: SANGER: Inhibition of human KMS-12-PE cell growth in a cell viability assay.

NCI-H1522 = settings: Homo sapiens, NCI-H1522;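 note: growth inhibition of NCI-H1522 cells, read out with a cell viability assay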
Description: SANGER: Inhibition of human NCI-H1522 cell growth in a cell viability assay.

Structure (SMILES) | IC50 (D-336MG) | IC50 (CA46) | IC50 (RL) | IC50 (D-542MG) | IC50 (NCI-H322M) | IC50 (JIYOYE) | IC50 (NCI-H716) | IC50 (KMS-12-PE) | IC50 (NCI-H1522)
COc1cc(N2CCN(C)CC2)ccc1Nc1ncc2c(n1)N(C)c1ccccc1C(=O)N2C | 0.769 µM | > 8 µM | 2.78 µM | 2 µM | > 8 µM | 6.89 µM | > 8 µM | > 8 µM | > 8 µM
COc1cc2ncn(-c3cc(OCc4ccccc4S(C)(=O)=O)c(C#N)s3)c2cc1OC [GSK-319347A] | > 5 µM | > 5 µM | > 5 µM | > 5 µM | > 5 µM | > 5 µM | > 5 µM | > 5 µM | > 5 µM
Cc1ccc(-c2c(C(=O)CCl)n(CCCO)c3ncnc(N)c23)cc1 | > 4 µM | > 4 µM | > 4 µM |  | > 4 µM | > 4 µM | > 4 µM | > 4 µM | > 4 µM
OCCCNc1cc(-c2ccnc(Nc3cccc(Cl)c3)n2)ccn1 | 0.109 µM | > 0.256 µM | > 0.256 µM |  | > 0.256 µM | 0.0322 µM | > 0.256 µM | > 0.256 µM | > 0.256 µM
CC[C@H](CO)Nc1nc(NCc2ccccc2)c2ncn(C(C)C)c2n1 [SELICICLIB] | > 16 µM | > 16 µM | > 16 µM | > 16 µM | > 16 µM | 8.5 µM | > 16 µM | > 16 µM | > 16 µM
N[C@@H](CSC(c1ccccc1)(c1ccccc1)c1ccccc1)C(=O)O [S-TRITYL-L-CYSTEINE] | > 5.12 µM | > 5.12 µM | > 5.12 µM |  | > 5.12 µM | 1.7 µM | > 5.12 µM | > 5.12 µM | > 5.12 µM
